Assay results from patent US20240336615A1, “CYCLOPROPYL-(HETERO)ARYL-SUBSTITUTED ETHYL-SULFOXIME-PYRIDINE DERIVATIVES” (Boehringer Ingelheim Vetmedica GmbH, priority 2023, published 2024).

Tests used:
Spodoptera litura = assay: Insecticidal test on Spodoptera litura (Example 14); assay type: in vivo; settings: foliar, 192 h, cabbage leaf dip, 2nd-instar larvae, 8 days after inoculation, read-out: activity level (corrected mortality rate)
Procedure: The compounds of formula (I), (Ia) and/or (Ib) of the present invention or salts thereof are separately dispersed in water and diluted to 500 ppm and 50 ppm. Cabbage leaves are dipped in the dispersion for about 30 seconds. After air dried, the leaves are placed in a plastic Petri dish with a diameter of 9 cm and inoculated with ten 2nd-instar larvae of Spodoptera litura, after which the dish is closed and then allowed to stand in a room at 25° C. 8 days after the inoculation, the numbers of the dead and alive insects are counted. The corrected mortality rate is calculated according to the following formula and the insecticidal activity is evaluated according to the following criteria.
[formula] [formula] • A: the corrected mortality rate is 100% • B: the corrected mortality rate is 90 to 99% • C: the corrected mortality rate is 80 to 89% • D: the corrected mortality rate is 50 to 79%

[1] = system: adult Ctenocephalides felis fleas; assay: Contact activity against adult Ctenocephalides felis (Example 4); settings: adult C. felis, coated pipe cleaner in vial, 72 hours post-treatment, read-out: EC50 (contact activity, percentage mortality)
Procedure: Compounds of formulae (I), (Ia) and/or (Ib) dissolved in 100% DMSO are diluted in acetone to a desired concentration. The resulting formulation is used to coat the fibers of a 0.5-inch-long piece of pipe cleaner placed in a glass scintillation vial. The vial is capped with a rubber gasket and filter paper insert. After the acetone has evaporated, ten adult Ctenocephalides felis fleas are added to each vial. The vials are then incubated at 22° C., 80% relative humidity, and 12 hours of light/12 hours of dark until a visual evaluation for mortality is performed at 72 hours post-treatment. Compound efficacy at a given dose is expressed as percentage mortality and adjusted to remove background mortality observed in control vials containing DMSO only. A dose response series of treated vials is implemented to determine EC50 values.

Laodelphax striatellus = assay: Insecticidal test on Laodelphax striatellus (Example 16); assay type: in vivo; settings: 192 h, rice seedling dip, 3rd-instar nymphs, 8 days after inoculation, read-out: activity level (corrected mortality rate)
Procedure: The compounds of formula (I), (Ia) and/or (Ib) of the present invention or salts thereof are separately dispersed in water and diluted to 500 ppm and 50 ppm. Rice plant seedlings are dipped in the dispersion for about 30 seconds. After air dried, the seedlings are put into a separate glass test tube and inoculated with ten 3rd-instar nymphs of Laodelphax striatellus and then the glass test tube is kept in a room at 25° C. 8 days after the inoculation, the numbers of the dead and alive insects are counted. The corrected mortality rate is calculated according to the following formula and the insecticidal activity is evaluated according to the following criteria.

Myzus persicae = assay: Insecticidal test on Myzus persicae (Example 17); assay type: in vivo; settings: 144 h, foliar application on Chinese cabbage, 6 days after application, read-out: control efficacy level (control rate)
Source text: The compounds of formula (I), (Ia) and/or (Ib) of the present invention or salts thereof are separately dispersed in water and diluted to 500 ppm and 50 ppm. Chinese cabbage plants are planted in plastic pots (diameter: 8 cm, height: 8 cm). Aphids (Myzus persicae) are propagated on the plants and then the number of surviving aphids is counted. The dispersion is applied to the foliage of the potted plants. After the plants are air dried, these are kept in a greenhouse. 6 days after the application, the number of the alive insects is counted on the plants. The control rate is calculated according to the following formula and the control efficacy is evaluated according to the following criteria. [formula] • Ta: the number of alive insects before the foliar application in a treated plot • T: the number of alive insects after the foliar application in a treated plot • Ca: the number of alive insects before the foliar application in an untreated plot • C: the number of alive insects after the foliar application in an untreated plot • A: the control rate is 100% • B: the control rate is 90 to 99% • C: the control rate is 80 to 89% • D: the control rate is 50 to 79%

Plutella xylostella = assay: Insecticidal test on Plutella xylostella (Example 15); assay type: in vivo; settings: 144 h, Chinese cabbage seedling dip, 6 days after dip treatment, read-out: activity level (corrected mortality rate)
Procedure: The compounds of formula (I), (Ia) and/or (Ib) of the present invention or salts thereof are separately dispersed in water and diluted to 500 ppm and 50 ppm. Ten adults of Plutella xylostella are released onto Chinese cabbage seedlings and allowed to lay eggs thereon. 2 days after the release of the adults, the seedling is dipped in the dispersion for about 30 seconds. After air dried, the seedling is kept in a room at 25° C. 6 days after the dip treatment, the numbers of the dead and alive insects are counted. The corrected mortality rate is calculated according to the following formula and the insecticidal activity is evaluated according to the following criteria.

adult C. felis fleas [2] = assay: Ingestion activity against adult Ctenocephalides felis, membrane feeding, alternative method (Examples 7 and 13); settings: Ctenocephalides felis
Procedure: Selected compounds of formula (I), (Ia) and (Ib) and compound “125” of WO 2021/033141 dissolved in 100% DMSO are diluted in bovine blood with sodium heparin anti-coagulant. The resulting formulation is offered via an artificial membrane feeding system to approximately 15 adult C. felis fleas previously dispensed into 24-well plates. The plates are then incubated in a double-chambered device. Visual evaluation for mortality is performed at 48 hours post-treatment. Compound efficacy at a given dose is expressed as percentage mortality and determined by normalization to positive and negative controls. A dose response series is implemented to determine EC50 values.
Compounds of formulae (I), (Ia) and/or (Ib) dissolved in 100% DMSO are diluted in bovine blood with sodium heparin anti-coagulant. The resulting formulation is offered via an artificial membrane feeding system to approximately 15 adult C. felis fleas previously dispensed into 24-well plates. The plates are then incubated in a double-chambered device. Visual evaluation for mortality is performed at 48 hours post-treatment. Compound efficacy at a given dose is expressed as percentage mortality and determined by normalization to positive and negative controls. A dose response series is implemented to determine EC50 values.

adult C. felis fleas [3] = assay: Ingestion activity against adult Ctenocephalides felis, membrane feeding, motility (Example 6); settings: 48 h, bovine blood via artificial membrane, 48h post treatment, read-out: EC50 (ingestion activity, % motility reduction)
Procedure: Compounds of formulae (I), (Ia) and/or (Ib) dissolved in 100% DMSO are added to bovine blood and offered via an artificial membrane feeding system to adult C. felis fleas. The motility of fleas is then visually inspected 48h post treatment. Efficacy is expressed in % motility reduction compared to controls containing blood treated with DMSO only. A dose response series is implemented to determine EC50 values.

[4] = system: adult R. sanguineus ticks; assay: Contact activity against adult Rhipicephalus sanguineus (Example 5); settings: coated vials, 48 hours post-treatment, read-out: EC50 (contact activity, percentage mortality)
Procedure: Compounds of formulae (I), (Ia) and/or (Ib) formulated in 100% DMSO are diluted in a solution containing acetone and Triton X-100 (0.02%). The resulting formulation is used to coat the inner walls of glass scintillation vials and the filter paper covering the cap of the vial. Once dried, ten adult R. sanguineus ticks are added to the vials. The vials are incubated at 24° C., 95% relative humidity, and 12 hours of light/12 hours of dark until evaluation. Ticks are visually evaluated for mortality at 48 hours post-treatment. Compound efficacy at a given dose is expressed as percentage mortality. A dose response series is implemented to determine EC50 values.

A. aegypti L1 larvae = assay: Activity against larvae of Aedes aegypti (Example 3); settings: 48 h at 27° C., read-out: EC50 (percentage of mortality, larvae)
Procedure: Eight A. aegypti L1 larvae in a total volume of 64 μL water are added to 384-well microplates containing compounds of formulae (I), (Ia) and/or (Ib) formulated in 100% DMSO. The plates are incubated for 48 h at 27° C. Individual well images are acquired and analyzed using a pipeline to quantitatively assess the amount of larvae biomass accumulating at the bottom of the well. The efficacy of a compound at a given dose is expressed as “percentage of mortality” and determined by comparison to average biomass descriptors of positive and negative control wells containing 1.0 μM Fipronil or DMSO only, respectively. Dose response assay are conducted to determine an EC50 value.

[5] = adult C. felis, bovine blood with sodium heparin, membrane feeding, 48 hours post-treatment, read-out: EC50 (ingestion activity, percentage mortality, alternative method)
[6] = alternative method according to Example 7, mortality at 48 hours post-treatment, read-out: C. felis membrane feeding (ingestion/blood feeding) activity EC50

| SMILES | EC50 (adult C. felis fleas [3]) | mortality at 500 ppm (Spodoptera litura) | EC50 [1] | mortality at 50 ppm (Laodelphax striatellus) | pest or weed control at 50 ppm (Myzus persicae) | mortality at 50 ppm (Plutella xylostella) | EC50 (adult C. felis fleas [2]; [5]) | EC50 (adult C. felis fleas [2]; [6]) | mortality at 50 ppm (Spodoptera litura) | EC50 [4] | mortality at 500 ppm (Laodelphax striatellus) | pest or weed control at 500 ppm (Myzus persicae) | mortality at 500 ppm (Plutella xylostella) | EC50 (A. aegypti L1 larvae) |
| --- | --- | --- | --- | --- | --- | --- | --- | --- | --- | --- | --- | --- | --- | --- |
| CCS(=N)(=O)c1cc(-c2cc(C3CC3)sn2)cnc1-c1nc2cc(C(F)(F)C(F)(F)F)cnc2n1C (centres unmarked) [Compound 25] | < 1000 nM | – | 10000 to 100000 nM | – | 100% | 100% | 1000 to 10000 nM | – | 100% | – | 100% | – | – | – |
| CCS(=N)(=O)c1cc(-n2cc(C3CC3)cn2)cnc1-c1nc2cc(C(F)(F)C(F)(F)F)cnc2n1C (centres unmarked) [Compound 27] | < 1000 nM | 100% | < 10000 nM | – | – | – | < 1000 nM | 177 nM | – | < 10000 nM | 100% | 100% | 100% | – |
| CCS(=N)(=O)c1cc(-c2cnn(C3CC3)c2)cnc1-c1nc2cc(C(F)(F)C(F)(F)F)nnc2n1C (centres unmarked) [Compound 30] | < 1000 nM | 100% | < 10000 nM | – | – | – | < 1000 nM | 519 nM | – | 10000 to 100000 nM | 100% | 100% | 100% | – |
| CCS(=N)(=O)c1cc(-c2noc(C3(C(F)(F)F)CC3)n2)cnc1-c1nc2cc(C(F)(F)C(F)(F)F)nnc2n1C (centres unmarked) [Compound 31] | < 1000 nM | – | < 10000 nM | 100% | 100% | 100% | < 1000 nM | 78 nM | – | 10000 to 100000 nM | – | – | – | < 40 nM |

More lines, main results first:

| EC50 (adult C. felis fleas [3]) | SMILES | mortality at 500 ppm (Spodoptera litura) | EC50 [1] | mortality at 50 ppm (Laodelphax striatellus) | pest or weed control at 50 ppm (Myzus persicae) | mortality at 50 ppm (Plutella xylostella) | EC50 (adult C. felis fleas [2]; [5]) | EC50 (adult C. felis fleas [2]; [6]) | mortality at 50 ppm (Spodoptera litura) | EC50 [4] | mortality at 500 ppm (Laodelphax striatellus) | pest or weed control at 500 ppm (Myzus persicae) | mortality at 500 ppm (Plutella xylostella) | EC50 (A. aegypti L1 larvae) |
| --- | --- | --- | --- | --- | --- | --- | --- | --- | --- | --- | --- | --- | --- | --- |
| < 1000 nM | CCS(=N)(=O)c1cc(-c2cnn(C3CC3)c2)cnc1-c1nc2cc(C(F)(F)C(F)(F)F)cnc2n1C (centres unmarked) [Compound 22] | 100% | 10000 to 100000 nM | 100% | 100% | 100% | < 1000 nM | 981 nM | – | – | – | – | – | – |
| < 1000 nM | CCS(=N)(=O)c1cc(-c2cc(C3CC3)on2)cnc1-c1nc2cc(C(F)(F)C(F)(F)F)cnc2n1C (centres unmarked) [Compound 24] | – | < 10000 nM | – | 100% | 100% | < 1000 nM | 839 nM | 100% | 10000 to 100000 nM | 100% | 100% | 100% | – |
